In ChEMBL document CHEMBL4196002, “Design, synthesis, mechanistic and histopathological studies of small-molecules of novel indole-2-carboxamides and pyrazino[1,2-a]indol-1(2H)-ones as potential anticancer agents effecting the reactive oxygen species production” (Eur J Med Chem, 2018):

What was measured:
[1] = Inhibition of ROS generation in human PMN at 12.5 ug/ml after 50 mins by luminol-based chemiluminescence assay relative to control; assay type: functional
PC-3 = assay: Antiproliferative activity human PC3 cells after 48 hrs by propidium iodide staining-based fluorescence assay; assay type: functional, cell-based; conditions: PC-3, 48 h
[2] = Inhibition of ROS generation in human PMN at 3.13 ug/ml after 50 mins by luminol-based chemiluminescence assay relative to control; assay type: functional
[3] = Antioxidant activity assessed as DPPH radical scavenging activity at 10 uM after 30 mins dark incubation; assay type: functional
[4] = (§1) Inhibition of ROS generation in human PMN after 50 mins by luminol-based chemiluminescence assay; assay type: functional
Homo sapiens = organism: Homo sapiens; assay: as §1; assay type: functional
[5] = Inhibition of ROS generation in human PMN at 6.25 ug/ml after 50 mins by luminol-based chemiluminescence assay relative to control; assay type: functional
MCF7 = assay: Antiproliferative activity human MCF7 cells after 48 hrs by propidium iodide staining-based fluorescence assay; assay type: functional, cell-based; conditions: MCF7, 48 h
MIA PaCa-2 = assay: Antiproliferative activity human MIAPaCa2 cells after 48 hrs by propidium iodide staining-based fluorescence assay; assay type: functional, cell-based; conditions: MIA PaCa-2, 48 h
[6] = Antioxidant activity assessed as DPPH radical scavenging activity at 50 uM after 30 mins dark incubation; assay type: functional
[7] = Inhibition of ROS generation in human PMN at 1.56 ug/ml after 50 mins by luminol-based chemiluminescence assay relative to control; assay type: functional
[8] = Antioxidant activity assessed as DPPH radical scavenging activity at 100 uM after 30 mins dark incubation; assay type: functional
[9] = Inhibition of ROS generation in human PMN at 0.78 ug/ml after 50 mins by luminol-based chemiluminescence assay relative to control; assay type: functional
HT-29 = assay: Antiproliferative activity human HT-29 cells after 48 hrs by propidium iodide staining-based fluorescence assay; assay type: functional, cell-based; conditions: HT-29, 48 h
A549 = assay: Antiproliferative activity human A549 cells after 48 hrs by propidium iodide staining-based fluorescence assay; assay type: functional, cell-based; conditions: A549, 48 h
[10] = Cytotoxicity against human MCF10A cells assessed as cell viability at 50 uM after 96 hrs by MTT assay relative to control; assay type: cell-based, MCF-10A; conditions: read-out: Activity
[11] = target: Epidermal growth factor receptor (Homo sapiens, UniProt P00533); assay: Inhibition of His6-tagged EGFR (unknown origin) cytoplasmic domain expressed in baculovirus infected Sf9 insect cells after 10 mins followed by addition of ATP-MgCl2 and measured after 1 hr by time-resolved fluorometric analysis
Tubulin (Homo sapiens) = Tubulin (Homo sapiens) (UniProt P68371+Q9H4B7+P0DPH7+P68366+Q13509+Q71U36+P04350+Q3ZCM7+P07437+P68363+Q9BQE3+Q6PEY2+Q13885+Q9BVA1+Q9BUF5); assay: Inhibition of tubulin (unknown origin) polymerization assessed as tubulin assembly rate by fluorescence assay; assay type: protein-complex assay
[12] = target: Serine/threonine-protein kinase B-raf (Mus musculus, UniProt P28028, V600E); assay: Inhibition of mouse full-length GST-tagged BRAF V600E mutant using recombinant human full length N-terminal His-tagged MEK1 as substrate preincubated for 60 mins followed by substrate addition and measured after 25 mins by ELISA
Chain of Serine/threonine-protein kinase B-raf (P28028 whole entry, looked up, stated change not applied): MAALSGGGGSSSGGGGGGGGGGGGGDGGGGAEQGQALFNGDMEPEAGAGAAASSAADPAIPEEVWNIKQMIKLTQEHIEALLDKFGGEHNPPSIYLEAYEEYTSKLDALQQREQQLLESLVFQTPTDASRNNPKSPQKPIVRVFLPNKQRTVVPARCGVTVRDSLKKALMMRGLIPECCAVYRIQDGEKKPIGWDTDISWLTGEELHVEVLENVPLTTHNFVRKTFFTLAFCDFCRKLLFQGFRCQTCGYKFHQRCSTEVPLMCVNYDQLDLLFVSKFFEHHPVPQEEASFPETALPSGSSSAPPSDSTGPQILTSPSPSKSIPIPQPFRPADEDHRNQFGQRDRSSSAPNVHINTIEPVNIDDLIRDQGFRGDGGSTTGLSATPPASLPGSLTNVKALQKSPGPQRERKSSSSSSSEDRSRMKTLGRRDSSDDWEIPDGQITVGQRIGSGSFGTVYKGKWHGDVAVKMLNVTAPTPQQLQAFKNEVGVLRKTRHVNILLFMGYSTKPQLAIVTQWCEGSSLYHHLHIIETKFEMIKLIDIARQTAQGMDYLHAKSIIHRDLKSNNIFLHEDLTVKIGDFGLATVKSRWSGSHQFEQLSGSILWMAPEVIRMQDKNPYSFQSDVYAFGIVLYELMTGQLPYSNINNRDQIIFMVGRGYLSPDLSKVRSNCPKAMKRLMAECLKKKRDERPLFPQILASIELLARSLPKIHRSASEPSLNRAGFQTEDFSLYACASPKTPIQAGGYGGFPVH

Chain of Epidermal growth factor receptor (P00533 whole entry, the tested form may be a part): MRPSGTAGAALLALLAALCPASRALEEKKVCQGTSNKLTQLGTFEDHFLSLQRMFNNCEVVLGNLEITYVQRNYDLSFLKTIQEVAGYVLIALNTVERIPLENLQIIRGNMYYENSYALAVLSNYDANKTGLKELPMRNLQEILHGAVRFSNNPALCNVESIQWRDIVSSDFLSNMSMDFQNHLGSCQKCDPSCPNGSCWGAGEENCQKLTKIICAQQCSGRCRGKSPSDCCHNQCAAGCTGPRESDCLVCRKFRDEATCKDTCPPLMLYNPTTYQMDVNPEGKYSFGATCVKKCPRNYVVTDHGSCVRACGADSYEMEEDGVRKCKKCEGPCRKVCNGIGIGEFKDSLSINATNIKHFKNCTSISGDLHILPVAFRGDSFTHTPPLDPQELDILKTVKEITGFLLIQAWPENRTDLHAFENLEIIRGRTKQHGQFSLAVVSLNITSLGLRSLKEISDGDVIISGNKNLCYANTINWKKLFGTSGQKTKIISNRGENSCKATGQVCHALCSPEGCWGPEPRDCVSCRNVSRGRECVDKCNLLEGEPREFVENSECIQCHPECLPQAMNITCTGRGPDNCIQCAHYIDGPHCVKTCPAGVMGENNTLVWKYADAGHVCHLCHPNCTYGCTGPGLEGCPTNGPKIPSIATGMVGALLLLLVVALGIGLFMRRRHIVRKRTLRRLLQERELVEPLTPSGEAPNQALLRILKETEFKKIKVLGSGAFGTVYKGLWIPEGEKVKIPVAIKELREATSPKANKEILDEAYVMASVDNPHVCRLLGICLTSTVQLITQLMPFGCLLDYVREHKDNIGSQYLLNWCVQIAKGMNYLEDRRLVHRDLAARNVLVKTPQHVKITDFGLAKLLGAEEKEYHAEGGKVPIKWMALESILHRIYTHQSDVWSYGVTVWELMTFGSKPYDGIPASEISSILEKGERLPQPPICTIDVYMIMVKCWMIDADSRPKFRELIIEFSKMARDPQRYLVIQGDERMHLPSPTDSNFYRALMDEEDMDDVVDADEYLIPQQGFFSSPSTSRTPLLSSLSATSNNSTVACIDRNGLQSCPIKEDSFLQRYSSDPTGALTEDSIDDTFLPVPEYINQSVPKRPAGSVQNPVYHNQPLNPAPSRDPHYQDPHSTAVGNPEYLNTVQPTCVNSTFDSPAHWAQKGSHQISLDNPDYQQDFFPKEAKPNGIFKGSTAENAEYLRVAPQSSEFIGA

Row | Structure (SMILES) | inhibition at 12.5 µg/mL [1] [%] | IC50 (PC-3) [µM] | inhibition at 3.13 µg/mL [2] [%] | Activity [3] [%] | IC50 [4] [µM] | inhibition (Homo sapiens) | inhibition at 6.25 µg/mL [5] [%] | IC50 (MCF7) [µM] | IC50 (MIA PaCa-2) [µM] | Activity [6] [%] | inhibition at 1.56 µg/mL [7] [%] | Activity [8] [%] | inhibition at 0.78 µg/mL [9] [%] | IC50 (HT-29) [µM] | IC50 (A549) [µM] | viability at 96 h, 50 µM [10] [%] | IC50 [11] [µM] | Activity (Tubulin (Homo sapiens)) [a.u.] | IC50 [12] [µM]
1 | O=C(NC(CO)Cc1ccccc1)c1cc2ccccc2[nH]1 (stereo not drawn) | 64 | 16.5 | 32 | 24.8 | 23.1 | Dose-dependent effect | 47 | 16.4 | 18.6 | 50.1 | 21 | 64.6 | 9 | 16.9 | 15.4 | 96 | – | – | –
2 | Cc1c(C)c2c(c(C)c1O)CCC(C)(C(=O)O)O2 (stereo not drawn) | – | – | – | 77.6 | – | – | – | – | – | 82.5 | – | 95.2 | – | – | – | – | – | – | –
3 | CCc1c(C(=O)NC(CO)Cc2ccccc2)[nH]c2ccc(C(F)(F)F)cc12 (stereo not drawn) | 79 | 1.1 | 47 | 43.4 | 9.7 | Dose-dependent effect | 62 | 1.1 | 1.3 | 61.7 | 31 | 78 | 26 | 1.9 | 1.5 | 80 | 0.9 | 2650 | 1
4 | Cc1c(C(=O)NC(CO)Cc2ccccc2)[nH]c2ccc(Cl)cc12 (stereo not drawn) | 74 | 2.5 | 58 | 55.4 | 5.91 | Dose-dependent effect | 65 | 2.8 | 2.6 | 72.7 | 45 | 86.4 | 39 | 2.9 | 2.9 | 90 | 0.5 | 2570 | 3.7
5 | O=c1[nH]c(Cc2ccccc2)cn2c1cc1ccccc12 | 68 | 13.4 | 40 | 29.3 | 19 | Dose-dependent effect | 51 | 13.6 | 13.8 | 52.4 | 27 | 65.9 | 14 | 13.8 | 14.7 | 92 | – | – | –
6 | CCc1c(C(=O)NC(CO)Cc2ccccc2)[nH]c2ccc(Cl)cc12 (stereo not drawn) | 68 | 8.9 | 42 | 39.9 | 13 | Dose-dependent effect | 55 | 12.9 | 12.5 | 58.7 | 31 | 70.2 | 20 | 12.2 | 11.4 | 87 | – | – | –
7 | CCc1c2cc(Br)ccc2n2cc(Cc3ccccc3)[nH]c(=O)c12 | 70 | 3.4 | 52 | 54.5 | 6.44 | Dose-dependent effect | 61 | 3.6 | 4.6 | 73.9 | 44 | 82.4 | 25 | 4.8 | 4.5 | 82 | – | – | –
8 | CCc1c(C(=O)NC(CO)Cc2ccccc2)[nH]c2ccc(Br)cc12 (stereo not drawn) | 67 | 5.9 | 45 | 49.2 | 10.6 | Dose-dependent effect | 55 | 4.7 | 5.5 | 67.4 | 31 | 78.5 | 19 | 6.5 | 4.8 | 85 | – | – | –
9 | CCc1c2cc(Cl)ccc2n2cc(Cc3ccc(Cl)cc3)[nH]c(=O)c12 | 83 | 15.8 | 52 | 50.4 | 7.77 | Dose-dependent effect | 68 | 26.5 | 33.7 | 70.1 | 37 | 84.5 | 25 | 27.8 | 27.9 | 90 | – | – | –
10 | CCc1c2cc(Cl)ccc2n2cc(Cc3ccccc3)[nH]c(=O)c12 | 72 | 5.1 | 37 | 40.8 | 13.8 | Dose-dependent effect | 60 | 7.5 | 8.3 | 59 | 27 | 71.6 | 14 | 7.7 | 6 | 89 | – | – | –
11 | O=C(NC(CO)Cc1ccccc1)c1cc2cc(Cl)ccc2[nH]1 (stereo not drawn) | 77 | 2.4 | 48 | 50.2 | 11.3 | Dose-dependent effect | 60 | 1.4 | 2.6 | 61.2 | 33 | 77.5 | 25 | 2.4 | 1.9 | 89 | 0.8 | 2420 | 4.8
12 | CC(=O)Oc1ccccc1C(=O)O [ASPIRIN] | 92 | – | 63 | – | 9.78 | – | 85 | – | – | – | 46 | – | 33 | – | – | – | – | – | –
13 | CCc1c2cc(C(F)(F)F)ccc2n2cc(Cc3ccccc3)[nH]c(=O)c12 | 89 | 1 | 56 | 52.2 | 6.53 | Dose-dependent effect | 72 | 0.9 | 1.1 | 72.9 | 42 | 84.4 | 31 | 0.9 | 1.4 | 79 | 3.9 | 1920 | 0.9
14 | CCc1c(C(=O)NC(CO)Cc2ccc(Cl)cc2)[nH]c2ccc(Cl)cc12 (stereo not drawn) | 74 | 17.8 | 43 | 41.4 | 11.8 | Dose-dependent effect | 58 | 35.4 | 36 | 59.3 | 28 | 79.9 | 22 | 34.7 | 29.5 | 92 | – | – | –
